Source: ChEMBL document CHEMBL3507680, “University of Dundee, Gates Library screen for HepG2 cell viability”

assay: Human HepG2 cell viability assay in 384 well format; type: toxicity, cell-based; set-up: dose 125 nL, time 70.5 hour; cytotoxicity at 70.5 h: concentration not given beside the values; conditions: HepG2 cells, read-out: Inhibition

Row | Compound | cytotoxicity at 70.5 h [%]
1 | CCc1ncc(CN2CCC3(CCCN(CC4CCC4)C3)C2)cn1 (configuration not stated) | -6.02
2 | COc1ccc(NC(=O)N(C)Cc2ccsc2)cn1 | -3.11
3 | CC(C)NC(=O)N1CCC[C@H]1C(=O)NCCCc1cccc(F)c1 | -5.95
4 | CC(=O)N1CCCN(C(=O)c2cnn(-c3ccccc3Cl)c2)CC1 | -17.1
5 | CCn1nc(C(=O)N2CCCC2c2noc(C)n2)ccc1=O (configuration not stated) | -3.84
6 | Cc1nc2cc(=O)[nH]n2c(C)c1CC(=O)Nc1cn[nH]c1 | -2.66
7 | Cc1nc(-c2ccsc2)sc1C(=O)N1CCn2c(C)nnc2C1 | -0.696
8 | CCc1nc(COc2ccc(OCc3cnn(C)c3)cc2)no1 | -2.52
9 | CCN1C(=O)C[C@@H]2[C@@H]1CCN2S(=O)(=O)c1ccccc1 | -12.3
10 | Cc1ccc(CN2CCc3ncnc(-c4cccnc4)c3CC2)o1 | -5.88
11 | Cc1cccc(CN2CCc3nnc(CO)n3CC2)n1 | -3.1
12 | OCCN(Cc1ccncc1)CC1(c2ccc(Cl)cc2)CC1 | -4.99
13 | O=C(NC[C@@]1(COc2cnccn2)C[C@@H](O)[C@@H](O)C1)C1CCCC1 | 10.3
14 | CCn1c(C2CCN(C(=O)c3ccc4cc[nH]c4c3)CC2)n[nH]c1=O | 9.25
15 | Cc1ccc(Oc2ncccc2C(=O)N(C)CCCN(C)C)cc1 | 0.617
16 | CCCOc1ccc2c(c1)OCC(C(=O)NC(C)Cn1ccnc1)=C2 (configuration not stated) | -6.31
17 | CCOCCCNC(=O)CN(c1cccc(F)c1)S(C)(=O)=O | -21.2
18 | CC(C)n1[nH]c(=O)c2c1NC(=O)CC2c1ccc2ncccc2c1 (configuration not stated) | 5.19
19 | CCc1ncc2c(n1)CN(Cc1nc(C)c(C)o1)CC2 | 1.3
20 | COCC(=O)N1CCN(C)CC(Cc2cc(N(C)C)ncn2)C1 (configuration not stated) | -3.09
21 | CN(C)CCN1CCCC12CCN(C(=O)c1cccnc1)CC2 | -3.11
22 | Cn1cc(C(=O)N2CCCC(n3cccn3)C2)c2ccccc21 (configuration not stated) | 0.858
23 | CCC1c2ccccc2CCN1CCCS(C)(=O)=O (configuration not stated) | -3.06

Row | Compound | cytotoxicity at 70.5 h [%]
24 | Cc1nnc(NCC(c2cccs2)N2CCCC2)c(C#N)c1C (configuration not stated) | -2.36
25 | CCC(C)(C)n1nnnc1C(c1cccs1)N1CCCCC1 (configuration not stated) | -3.15
26 | CC(C)C(Nc1nc(C(F)(F)F)nc2ccccc12)C(=O)O (configuration not stated) | -1.94
27 | CCCn1nc2c(cc1=O)CN(Cc1nnc(C3CC3)o1)CC2 | 10.1
28 | COc1ccc(CN2CCC(O)CC2)c(OC)c1 | -6.19
29 | CC(C)N1CCC(CN2CCn3nc(CNC(=O)N(C)C)cc3C2)CC1 | 4.16
30 | O=C(NC[C@H]1CC[C@H](c2nnc(-c3cccnc3)o2)CC1)C1CC1 | 6.18
31 | CC(C)CN1CCC2(C1)CN(c1ncccn1)C2 | -11.9
32 | Cc1cccc(Cn2nc(C3CCNCC3)n(-c3ccccc3)c2=O)c1 | -5.91
33 | COC(=O)[C@H](C)NC(=O)c1cnc(Cc2ccc(F)cc2)s1 | -0.425
34 | COc1ccc2nc(C[C@@H]3C[C@@H](C(C)C)[C@H](CN)C=C3C)[nH]c2n1 | -4.84
35 | CN(C)CCn1ccnc1C1CCCN(C(=O)CCc2cccnc2)C1 (configuration not stated) | -4.26
36 | CC1CN(C)CCN1C(=O)c1cnc2onc(CC(C)(C)C)c2c1 (configuration not stated) | -8.98
37 | COc1cc(NC(=O)c2cc(Cl)ccc2F)c(C(=O)N(C)C)cc1OC | -15.4
38 | CNS(=O)(=O)c1ccc(CNC(=O)c2cccc(C)n2)cc1 | 16.9
39 | Cc1occc1C(=O)N1CCC[C@]2(C[C@@H](OCc3ccccn3)CO2)C1 | -9.42
40 | CCc1nc(C)c(C(=O)N(C)Cc2cnn(-c3cccc(OC)c3)c2)s1 | -3.66
41 | CCN(CC1CCOC1)C(=O)c1ccn(-c2ccc(OC)cc2)n1 (configuration not stated) | -3.5
42 | O=C(NCCSC1CCCC1)c1cnccn1 | 29.4
43 | CCCc1nc(C(=O)N2CCCn3nc(CCC(=O)O)cc3C2)cs1 | -9.99
44 | O=C(COc1cccc2c1CCC2=O)NCCOc1ccccc1 | 15.4
45 | COc1cccc(CC2(CO)CCCN(c3nccs3)C2)c1 (configuration not stated) | -1.79
46 | CN(C)S(=O)(=O)N1CCO[C@H]2[C@H](Oc3cccnc3)CC[C@@H]21 | -3.81

Row | Compound | cytotoxicity at 70.5 h [%]
47 | CCCN(CCC)c1ncc(S(=O)(=O)c2ccc(C)cc2)c(N)n1 | -19.9
48 | COCc1nc(C(=O)N(Cc2ccccc2)CC(C)C(=O)O)cs1 (configuration not stated) | -4.63
49 | O=C1NC2(CCN(C(=O)Cc3ccsc3)CC2)CC1c1ccncc1 (configuration not stated) | -4.21
50 | Cc1nn(C)c(C)c1C1CCCN1Cc1nc(-c2ccccn2)no1 (configuration not stated) | -5.05
51 | CC(O)c1cccc(Nc2nc(NCCO)c3ccccc3n2)c1 (configuration not stated) | -5.65
52 | Cc1nn(C)c(C)c1C(=O)N1CCN(c2ccncc2Cl)CC1 | -6.89
53 | O=S(=O)(CCO)Cc1ccc(OC(F)F)cc1 | -5.07
54 | O=C(Nc1ccccc1)c1nn(C2CCS(=O)(=O)C2)c2c1CCCC2 (configuration not stated) | -11.3
55 | CCCn1nc(C)c(CNC(=O)c2snnc2C)c1C | -13.1
56 | Cc1ccc(C(=O)N(Cc2ccccc2F)C2CC2)c(=O)[nH]1 | 7.09
57 | CC(NC(=O)c1cc(N2CCNC2=O)ccc1F)c1ccc(F)cc1 (configuration not stated) | -4.65
58 | CO[C@H]1CCN(Cc2cnn(C)c2)[C@@H]2CN(Cc3cccnc3)C[C@H]12 | -25.8
59 | Cc1cnc(CN(C)C2CCN(Cc3nc4ccccc4s3)C2)o1 (configuration not stated) | 51.7
60 | Cc1csc(C(=O)N2CCC(S(C)(=O)=O)C2)c1 (configuration not stated) | -3.26
61 | CSCC(C)N(C)S(=O)(=O)c1ccc(Cl)cc1C#N (configuration not stated) | -5.66
62 | CCN(C(=O)c1nc2c(s1)CCCN2S(C)(=O)=O)C(C)C | 13.1
63 | COc1ccc(CC(=O)N2C[C@H]3CN(Cc4ccccn4)C[C@H]3C2)cc1 | -3.26
64 | Nc1nc2c(c(NC(Cn3cccn3)c3ccccc3)n1)CCNCC2 (configuration not stated) | 0.802
65 | Cc1cc(CN2CCc3nc(C(C)C)nc(O)c3CC2)c(C)s1 | -0.545
66 | O=C(c1cc(C2CC2)nc2onc(-c3ccccc3)c12)N1CC(O)C1 | 16.9
67 | COCCN(Cc1ccc(F)cc1Cl)C(=O)c1cc[n+]([O-])cc1 | 17.1
68 | CC(=O)N1CCC(c2cncc(N3CCCCCC3)n2)CC1 | -17.2
69 | COCC(=O)NC[C@]1(O)CN(Cc2ccc3c(c2)OCCO3)C[C@H]1O | -12.9

Row | Compound | cytotoxicity at 70.5 h [%]
70 | Cc1ccc(-c2ccnc(NC(c3ncccc3C)C3CC3)n2)c(C)n1 (configuration not stated) | -3.87
71 | CC(C)C(NC(=O)c1ccccc1)C(=O)N1CCC2(CC1)OCCO2 (configuration not stated) | 17.2
72 | CCCS(=O)(=O)N1CCC2(CCCN(Cc3cccc(F)c3F)C2=O)C1 (configuration not stated) | -7.34
73 | CCSc1ccc(C(C)NC(=O)CNS(C)(=O)=O)cc1 (configuration not stated) | -7.13
74 | Cc1ncsc1CN1CC[C@H]2OCC[C@@]2(C(=O)NC(C)C)C1 | 33.4
75 | Cc1ccc(S(=O)(=O)N2CSCC2C(=O)NCC(F)(F)F)cc1C (configuration not stated) | -3.59
76 | Cn1ncc2ccc(C3CCCN(C(=O)Cc4cccs4)C3)nc21 (configuration not stated) | 13.1
77 | O=C(C1CCC2(CCN(c3nncs3)CC2)CO1)N1CCCC1 (configuration not stated) | -1.78
78 | Cn1ccc(C(=O)N2CCC(Cc3cccc4cccnc34)C2)n1 (configuration not stated) | -5.77
79 | O=C(COCc1nc(-c2ccncc2)no1)NC1CCCCC1 | -2.53
80 | CCn1cc(Br)c(C(=O)NCc2ccccc2)n1 | 1.89
81 | FC(F)(F)Oc1ccc(-c2noc([C@@H]3Cc4nc[nH]c4CN3)n2)cc1 | -4.51
82 | O=C(NCCCN1CCc2ccccc2C1)c1cccnc1O | -11.9
83 | CCN(CC)C(=O)c1ccn(COc2cccc(Cl)c2Cl)n1 | -2.31
84 | CC(=O)NCCc1cc2nc(-c3ccncc3)ccn2n1 | -4.37
85 | O=C1NCCN2CCN(C(=O)NCCc3ccccc3)CC12 (configuration not stated) | -9.06
86 | FC(F)(F)c1ccc(-c2n[nH]c3c2CN(CC2CCOC2)CC3)cc1 (configuration not stated) | -15.3
87 | Cn1cc(C(=O)N2CC[C@@H]3[C@@H]2CCN3c2ccccn2)cn1 | -5.62
88 | CN(CCn1cccn1)S(=O)(=O)c1cccc(Cl)c1C#N | -7.08
89 | COCc1cc(NCc2ccccc2OC)ncn1 | -7.89
90 | COCCN1CCN(CC(=O)N(C)Cc2cccc(F)c2)CC1C (configuration not stated) | 0.133
91 | CC(C)c1noc(C(C)N2CCC(c3nc4ccccc4o3)CC2)n1 (configuration not stated) | -18.9
92 | O=C(c1cccnc1)N1Cc2[nH]nc(COCCO)c2C1 | -4.06

Row | Compound | cytotoxicity at 70.5 h [%]
93 | Cc1cc(O)ncc1NS(=O)(=O)c1cccc(F)c1F | -19.8
94 | CC(Cn1ccnc1)NC(=O)N1CCN(Cc2cccnc2)CC1 (configuration not stated) | 0.583
95 | CN(C)CCNC(=O)c1ccccc1NC(=O)c1cc(Cl)ccc1Cl | 26.4
96 | CC(Cn1cccn1)NC(=O)NCc1cccs1 (configuration not stated) | -16.6
97 | COc1ncccc1C(=O)N1CC[C@H]2C[C@H](c3nnc(C)[nH]3)O[C@@H]2C1 | -14.1
98 | c1csc(CN2CCc3ncnc(C4CCOC4)c3CC2)c1 (configuration not stated) | -8.76
99 | O=C(c1ccoc1)N1CCC2(C1)CN(c1nccs1)C2 | -2.55
100 | COCC(=O)N1C[C@H]2CNC[C@@]2(C(=O)NCc2c(C)noc2C)C1 | -0.367
101 | Cc1nc(C)c(CNC(=O)NC(c2nnc3n2CCC3)C(C)C)s1 (configuration not stated) | -1.59
102 | CCc1ccc(C(=O)NCc2ccnc(N3CCN(C)CC3)c2)o1 | -7.44
103 | COc1cccc(N2CCN(Cc3ccc4[nH]ccc4c3)CC2=O)c1 | -12.1
104 | O=C(NCC1CCOCC1)[C@H]1C[C@@H]2CCN(Cc3ccncc3)C[C@@H]2O1 | -1.08
105 | O=C1CC(CNc2cncc(Br)c2)c2ccccc2N1 (configuration not stated) | 3.03
106 | CN(Cc1noc(C2CC2)n1)CC1CCN(CCO)CC1 | 14.4
107 | c1coc(-c2noc(CN3CCCC(Cn4cncn4)C3)n2)c1 (configuration not stated) | 26
108 | Cn1nc2c(cc1=O)CN(CCOc1ccccc1C#N)CC2 | 35
109 | COCc1cncc2c1CCN(C(=O)c1ccoc1C)C2 | -2.3
110 | COc1ccccc1-c1cc(C(=O)Nc2nc[nH]n2)[nH]n1 | -12.9
111 | COc1ccccc1CC(=O)N1CCCC(c2nccn2CC(N)=O)C1 (configuration not stated) | 23.1
112 | CCN(Cc1ccccc1C)S(C)(=O)=O | -3.77
